Measurements as given in patent publication US20100152434A1, “Protein Kinase-binding Nucleosides and Associated Methods” (priority 2007, published 2010).
Read-outs that look alike come from different tables or passages of the source.

Key:
[1] = test system: 788-0; settings: 788-0
[2] = test system: DU-145; assay: cells; settings: Homo sapiens, DU-145, 48 h
[3] = test system: SF-268; assay: cells; settings: Homo sapiens, SF-268, 48 h
[4] = test system: BT-549; assay: cells; settings: Homo sapiens, BT-549, 48 h
[5] = test system: NCI/ADR-RES; settings: NCI/ADR-RES
[6] = test system: NCI-H460
[7] = test system: SF-295; assay: cells; settings: Homo sapiens, SF-295, 48 h
[8] = test system: HCT-15
[9] = test system: COLO 205
[10] = test system: 788-0; assay: cells; settings: Homo sapiens, 48 h
[11] = test system: OVCAR-4; assay: cells; settings: Homo sapiens, OVCAR-4, 48 h
[12] = test system: UO-31
[13] = test system: IGROV1
[14] = test system: HCC-2998; assay: cells; settings: Homo sapiens, HCC 2998, 48 h
[15] = test system: SF-539; assay: cells; settings: Homo sapiens, SF-539, 48 h
[16] = test system: NCI-H226; assay: cells; settings: Homo sapiens, NCI-H226, 48 h
[17] = test system: U251
[18] = test system: SF-295
[19] = test system: NCI-H226
[20] = test system: CAKI-1; assay: cells; settings: Homo sapiens, CAKI-1, 48 h
[21] = test system: LOX IMVI
[22] = test system: OVCAR-3
[23] = test system: NCI-H522; assay: cells; settings: Homo sapiens, NCI-H522, 48 h
[24] = test system: HT29; assay: cells; settings: Homo sapiens, HT-29, 48 h
[25] = test system: HCT-15; assay: cells; settings: Homo sapiens, HCT-15, 48 h
[26] = test system: COLO 205; assay: cells; settings: Homo sapiens, COLO 205, 48 h
[27] = test system: UACC-62; assay: cells; settings: Homo sapiens, UACC-62, 48 h
[28] = Log10 Concentration −4.0, Molar
[29] = Log10 Concentration −5.0, Molar
[30] = Log10 Concentration −6.0, Molar
[31] = Log10 Concentration −7.0, Molar
[32] = Log10 Concentration −8.0, Molar

CCOC(=O)C[C@@H]1C(O[Si](C)(C)C(C)(C)C)[C@H](n2cnc3c(NC(=O)Nc4ccccc4)ncnc32)O[C@@H]1CNC(=O)NC (some centres unmarked) [Compound 10]
TGI ([1]; 48 h): 5.21E−8 Molar | Percent Growth [1, 28]: −97% | Percent Growth [1, 29]: −34% | Percent Growth [1, 30]: 86% | Percent Growth [1, 31]: 83% | Percent Growth [1, 32]: 92% | GI50 [2]: 4.97 µM | CC50 ([2]; read-out: LC50): 78.4 µM | GI50 [3]: 6.53 µM | CC50 ([3]; read-out: LC50): 92.5 µM | GI50 [4]: > 100 µM | CC50 ([4]; read-out: LC50): > 100 µM | TGI ([5]; 48 h): >1.00E−4 Molar | Percent Growth [5, 28]: 59% | Percent Growth [5, 29]: 80% | Percent Growth [5, 30]: 104% | Percent Growth [5, 31]: 107% | Percent Growth [5, 32]: 105% | TGI ([6]; 48 h): 2.50E−5 Molar | Percent Growth [6, 28]: −49% | Percent Growth [6, 29]: 32% | Percent Growth [6, 30]: 101% | Percent Growth [6, 31]: 102% | Percent Growth [6, 32]: 102% | GI50 [7]: 5.73 µM | CC50 ([7]; read-out: LC50): > 100 µM | TGI ([8]; 48 h): >1.00E−4 Molar | Percent Growth [8, 28]: 43% | Percent Growth [8, 29]: 47% | Percent Growth [8, 30]: 94% | Percent Growth [8, 31]: 96% | Percent Growth [8, 32]: 99% | TGI ([9]; 48 h): >1.00E−4 Molar | Percent Growth [9, 28]: 3% | Percent Growth [9, 29]: 20% | Percent Growth [9, 30]: 93% | Percent Growth [9, 31]: 97% | Percent Growth [9, 32]: 102% | GI50 [10]: 2 µM | GI50 [11]: 12.3 µM | CC50 ([11]; read-out: LC50): > 100 µM | TGI ([12]; 48 h): 2.95E−5 Molar | Percent Growth [12, 28]: −69% | Percent Growth [12, 29]: 61% | Percent Growth [12, 30]: 82% | Percent Growth [12, 31]: 87% | Percent Growth [12, 32]: 87% | TGI ([13]; 48 h): 1.80E−5 Molar | Percent Growth [13, 28]: −58% | Percent Growth [13, 29]: 20% | Percent Growth [13, 30]: 93% | Percent Growth [13, 31]: 94% | Percent Growth [13, 32]: 94% | GI50 [14]: > 100 µM | CC50 ([14]; read-out: LC50): > 100 µM | GI50 [15]: 5.19 µM | CC50 ([15]; read-out: LC50): > 100 µM | GI50 [16]: > 100 µM | CC50 ([16]; read-out: LC50): > 100 µM | TGI ([17]; 48 h): 2.09E−5 Molar | Percent Growth [17, 28]: −61% | Percent Growth [17, 29]: 28% | Percent Growth [17, 30]: 94% | Percent Growth [17, 31]: 95% | Percent Growth [17, 32]: 98% | TGI ([18]; 48 h): >1.00E−4 Molar | Percent Growth [18, 28]: 24% | Percent Growth [18, 29]: 38% | Percent Growth [18, 30]: 88% | Percent Growth [18, 31]: 91% | Percent Growth [18, 32]: 91% | TGI ([19]; 48 h): >1.00E−4 Molar | Percent Growth [19, 28]: 55% | Percent Growth [19, 29]: 71% | Percent Growth [19, 30]: 102% | Percent Growth [19, 31]: 105% | Percent Growth [19, 32]: 101% | GI50 [20]: 29.7 µM | CC50 ([20]; read-out: LC50): > 100 µM | TGI ([21]; 48 h): >1.00E−4 Molar | Percent Growth [21, 28]: 4% | Percent Growth [21, 29]: 35% | Percent Growth [21, 30]: 93% | Percent Growth [21, 31]: 97% | Percent Growth [21, 32]: 97% | TGI ([22]; 48 h): 1.72E−5 Molar | Percent Growth [22, 28]: −53% | Percent Growth [22, 29]: 16% | Percent Growth [22, 30]: 116% | Percent Growth [22, 31]: 115% | Percent Growth [22, 32]: 114% | GI50 [23]: 4.36 µM | CC50 ([23]; read-out: LC50): > 100 µM | GI50 [24]: 4.2 µM | CC50 ([24]; read-out: LC50): > 100 µM | GI50 [25]: 8.5 µM | CC50 ([25]; read-out: LC50): > 100 µM | GI50 [26]: 3.84 µM | CC50 ([26]; read-out: LC50): > 100 µM | GI50 [27]: > 100 µM | CC50 ([27]; read-out: LC50): > 100 µM
